Reference: article PMC3605511, “Tumor P-Glycoprotein Correlates with Efficacy of PF-3758309 in in vitro and in vivo Models of Colorectal Cancer” (Frontiers in Pharmacology, 2013)
Where two headings read alike, the source gives them in different places.

Experiments:
HCT15 = assay: Cell proliferation assay, HCT15; type: cell-based; conditions: Homo sapiens, HCT-15
Protocol: (§1) Cytotoxic/proliferation effects were determined using the sulforhodamine B (SRB) assay (Skehan et al., [1990]) or by resazurin. Briefly, cells in logarithmic growth phase were transferred to 96 well flat bottom plates with lids. One-hundred microliter cell suspensions containing 1500–5000 viable cells were plated into each well and incubated overnight prior to exposure with increasing concentrations of PF-309 for 3–5 days, dependent upon cell type. Media was removed and cells were fixed with cold 10% trichloroacetic acid for 30 min at 4°C. Cells were then washed with water and stained with 0.4% SRB (Fisher Sci., Pittsburgh, PA, USA) for 30 min at room temperature, washed again with 1% acetic acid, followed by stain solubilization with 10 mM tris at room temperature. The plate was then read on a plate reader (Biotek Synergy 2, Winooski, VT, USA) set at an absorbance wavelength of 565 nm. Cell proliferation curves were derived from the raw absorbance (OD) data.
(§2) Since PF-309 appeared to be a strong P-gp and BCRP substrates, we sought to evaluate if the transporters influenced sensitivity in vitro. We evaluated the sensitivity of CRC cell lines to PF-309 treatment in a panel of 27 lines. Cells were exposed to PF-309 at a range of concentrations for 72 h and cell content measured by SRB assay (see Pitts et al., [2013]). […]

SW1463 = assay: Cell proliferation assay, SW1463; type: cell-based; conditions: Homo sapiens; SW1463, PF-309 alone, 72 h; 1 uM was the maximum concentration used
Protocol: as §1, §2

[1] = test system: SW480 cell line xenograft; assay: CRC cell line xenograft efficacy, SW480; type: in vivo, mice; conditions: 25 mg/kg orally twice daily, 14–28 days, end of study tumor volumes
Protocol: For cell line xenografts, CRC cells were harvested in exponential phase growth and resuspended in a 1:1 mixture of serum-free RPMI 1640 and Matrigel (BD Biosciences). Five to ten million cells per mouse were injected subcutaneously into the flank using a 23-gauge needle. Mice were monitored daily for signs of toxicity and were weighed twice weekly. Tumor size was evaluated twice per week by caliper measurements using the following formula: tumor volume = length × width^2 × 0.52. When tumors reached 200–300 mm^3 mice were randomized into two groups with at least 10 tumors per group. Mice were then treated for 14–28 days (until control tumor volume reach ∼1500 mm^3) with either vehicle control (0.5% methylcellulose), or PF-3758309 (25 mg/kg) twice daily by oral gavage.
Human tumor xenograft models were used to evaluate the efficacy of PF-309 in vivo. Eleven different CRC cell line tumor xenografts were treated with 25 mg/kg PF-309 twice daily by oral gavage for 14–28 days (until control tumor volumes reached ∼1500 mm^3). Tumor volumes were measured throughout the study and the % growth inhibition was calculated from the average end of study tumor volumes by:
% Growth Inhibition= (average control volume−average treated volume)/average control volume×100%

[2] = MDCKII-LE permeability assay; type: in vitro ADME; conditions: dog, MDCK; MDCKII-LE cells, mean of two replicates
Protocol: (§3) Permeability and transporter substrate assays were performed as previously published (Feng et al., [2008]; Callegari et al., [2011]; Di et al., [2011]). Permeability assays were conducted in MDCKII-LE cells, which were generated by isolation of a subpopulation of cells with low expression of endogenous P-gp (Feng et al., [2008]; Callegari et al., [2011]; Di et al., [2011]). The use of MDCKII-LE cells are used to measure the passive permeability of compounds in place of MDCK wild-type or Caco-2 cells since both MDCK wild-type and Caco-2 cells are known to have some level of endogenous transporter expression which can affect the permeability measurement. P-gp efflux was determined in MDR1-MDCK cells and BCRP efflux was measured in BCRP-MDCKII-LE cells.
(§4) MDCKII-LE, MDR1-MDCK, and BCRP-MDCKII-LE transwell assays were performed to determine the permeability and transporter efflux of PF-309 in vitro (Table 1). The permeability of PF-309 was determined to be 0.9 × 10^−6 cm/s in MDCKII-LE cells (mean of two replicates is presented). As previously described (Feng et al., [2008]), in MDCKII-LE cells a compound with a donor to receiver (A → B) flux of <5 × 10^−6 cm/s is classified as having low permeability. Compounds with A → B flux of 5–15 × 10^−6 cm/s are classified as moderately permeable and compounds >15 × 10^−6cm/s are considered to be highly permeable.

MDCKII-LE cells = assay: MDCKII-LE permeability assay; type: in vitro ADME; conditions: MDCKII-LE; A → B <5 × 10^−6 cm/s low, 5–15 moderate, >15 high
Protocol: as §3, §4

[3] = test system: CRC, breast, and non-small cell lung cancer cell lines; assay: Proliferation by resazurin, expanded panel of 71 cell lines; type: cell-based; conditions: Homo sapiens, printed over a group of bars, cell lines covered not named
Protocol: as §1, §2

LS1034 = assay: Cell proliferation assay, LS1034; type: cell-based; conditions: Homo sapiens, LS-1034; LS1034, PF-309 alone, 72 h; 1 uM was the maximum concentration used
Protocol: as §1, §2

SW620 = assay: Cell proliferation assay, SW620; type: cell-based; conditions: Homo sapiens, SW-620; SW620, 72 h, SRB assay
Protocol: as §1, §2

SW837 = assay: Cell proliferation assay, SW837; type: cell-based; conditions: Homo sapiens; SW837, 72 h, SRB assay
Protocol: as §1, §2

SW48 = assay: Cell proliferation assay, SW48; type: cell-based; conditions: Homo sapiens; SW48, 72 h, SRB assay
Protocol: as §1, §2

Cc1nc(Nc2n[nH]c3c2CN(C(=O)N[C@H](CN(C)C)c2ccccc2)C3(C)C)c2sccc2n1 [PF-309]
IC50 (HCT15; HCT15, 72 h, SRB assay, read-out: IC50): > 1000 nM
IC50 (HCT15; HCT15, PF-309 alone, 72 h (Table 2), read-out: PF-309 IC50): 780 nM
IC50 (SW1463): > 1000 nM
% Growth inhibition [1]: 42%
Papp A→B [2]: 0.9 ×10⁻⁶ cm/s
permeability classification (MDCKII-LE cells): poorly permeable
IC50 [3]: > 100 nM
IC50 (LS1034): > 1000 nM
IC50 (SW620): 5 ± 3.1 nM
IC50 (SW837): > 1000 nM
IC50 (SW48): 11.9 ± 4.4 nM
